Data: patent US9550763B2, “Heterocyclic ring and carbocyclic derivative” (Shionogi & Co., Ltd., priority 2012, dated 2017)

What follows are compounds tested against human P2X3 receptor (Homo sapiens (Human), UniProt P56373) (assay: Evaluation of human P2X3 receptor inhibitory activity (Test Example 1-2, FLIPR 384, 384-well, 150 nM ATP)). Settings: human P2X3 receptor in C6BU-1 cells; Test Example 1-2 (compounds I-301 to I-483); read-out: P2X3 IC50.
Assay type: cell-based
Method: Stably expressing cell line (C6BU-1 cell transfected with human P2X3 receptor gene (GenBank accession number Y07683) was used. The cells were seeded in a 384-well microtiter plate at a concentration of 3000 cells/well and cultured in the medium (7.0% fetal bovine serum, 7.0% horse serum, 1% antibiotic and antifungal in DMEM) for one day at 37° C. under 5% carbon dioxide atmosphere. The medium was replaced with 4 μM Fluo-3-AM solution (20 mM HEPES, […], 5.27 mM KCl, 0.9 mM MgCl2, 1.26 mM CaCl2, 5.6 mM D-glucose, 2.5 mM probenecid, 0.5% BSA, and 0.04% Pluronic F-127, pH 7.5) and incubated at 37° C. under 5% dioxide carbon atmosphere for one hour. The plate was washed with washing buffer (20 mM HEPES, 137 mM NaCl, 5.27 mM KCl, 0.9 mM MgCl2, 1.26 mM CaCl2, 5.6 mM D-glucose, 2.5 mM probenecid, pH7.5), and each well was added with 20 μL of this buffer. The plate was placed in High-Throughput Screening System FLIPR 384 (Molecular Device Co.). Measurement of fluorescence intensity by FLIPR 384 was started, and 20 μL of DMSO solutions containing different concentrations of the test compound as prepared by dilution with dilution buffer (20 mM HEPES, 137 mM NaCl, 5.27 mM KCl, 0.9 mM MgCl2, 1.26 mM CaCl2, 5.6 mM D-glucose, 2.5 mM probenecid, 0.1% Pluronic F-127, pH 7.5) were dispensed to each well through the built-in automatic dispenser. Five minutes after, 150 nM ATP solution (25 μL) prepared by dilution with the dilution buffer was dispensed through the built-in automatic dispenser, and the measurement of fluorescence intensity was continued for 4 min. For each well, the specific maximum fluorescence intensity was calculated as the ratio of the maximum fluorescence intensity after addition of the ATP solution to the fluorescence intensity at the starting of the measurement. The 50% inhibitory concentration (IC50) was calculated under the assumption that the specific maximum fluorescence intensity without test compound is 0% inhibition and that the specific maximum fluorescence intensity when the dilution buffer was added in place of ATP solution is 100% inhibition, to evaluate the inhibitory activity of the test compound. The specific maximum fluorescence intensity and IC50 were calculated using Spotfire (Science & Technology Systems, Inc.)
The data of the compounds I-001 to I-300 are the results by the method mentioned in Test Example 1-1, and the data of the compounds I-301 to I-483 are the results by the method mentioned in Test Example 1-2.

Chain of human P2X3 receptor (P56373 whole entry): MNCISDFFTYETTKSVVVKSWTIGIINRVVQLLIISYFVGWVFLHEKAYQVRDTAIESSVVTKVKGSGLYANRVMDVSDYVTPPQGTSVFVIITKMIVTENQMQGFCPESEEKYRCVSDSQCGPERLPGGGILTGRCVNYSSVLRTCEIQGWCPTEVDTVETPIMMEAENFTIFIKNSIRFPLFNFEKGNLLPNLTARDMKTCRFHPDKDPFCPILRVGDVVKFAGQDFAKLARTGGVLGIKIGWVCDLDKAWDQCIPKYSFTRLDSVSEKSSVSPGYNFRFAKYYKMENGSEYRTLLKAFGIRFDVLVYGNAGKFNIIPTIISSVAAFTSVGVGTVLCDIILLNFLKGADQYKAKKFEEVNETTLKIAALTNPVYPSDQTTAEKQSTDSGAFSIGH

Q: `COC(=O)c1cc(Oc2ccc(/N=c3\[nH]cc(Nc4ccon4)c(=O)n3Cc3ccc(Cl)cc3)cc2)ccn1` [Compound I-320] was tested. Which IC50 did it give?
A: 19 nM

Q: With `CC(C)c1c[nH]/c(=N\c2ccc(Oc3cccc(C#N)n3)cc2)n(Cc2ccc(Cl)cc2)c1=O` [Compound I-321] as the compound, how does the IC50 read?
A: 150 nM

Q: With `COCCn1c(=O)cc(Nc2ccc(Oc3cccc(C#N)n3)c(C)n2)n(Cc2ccc(Cl)cc2)c1=O` [Compound I-322] as the compound, how does the IC50 read?
A: 5 nM

Q: `COC(=O)[C@H](C)[C@H](C)n1c(=O)cc(Nc2ccc(Oc3ccc(F)cn3)cc2)n(Cc2ccc(Cl)cc2)c1=O` [Compound I-323] was tested. Which IC50 did it give?
A: 26 nM

Q: With `COCCn1c(=O)cc(Nc2ccc(Oc3cccc(C(=O)O)n3)c(C)n2)n(Cc2ccc(Cl)cc2)c1=O` [Compound I-324] as the compound, how does the IC50 read?
A: 14 nM

Q: With `C[C@@H](C(=O)O)[C@H](C)n1c(=O)cc(Nc2ccc(Oc3ccc(F)cn3)cc2)n(Cc2ccc(Cl)cc2)c1=O` [Compound I-325] as the compound, how does the IC50 read?
A: 11 nM

Q: `CCn1c(=O)cc(Nc2ccc3nc(C(F)F)sc3c2)n(Cc2ccc(Cl)cc2)c1=O` [Compound I-326] was tested. Which IC50 did it give?
A: 328 nM

Q: How did the IC50 turn out when `Cc1nnc(-c2c[nH]/c(=N\c3ccc(Oc4cccc(C#N)n4)cc3)n(Cc3ccc(Cl)cc3)c2=O)o1` [Compound I-327] was run?
A: 34 nM

Q: With `Cc1nnc(-c2c[nH]/c(=N\c3ccc(Oc4cccc(C(=O)O)n4)cc3)n(Cc3ccc(Cl)cc3)c2=O)o1` [Compound I-328] as the compound, how does the IC50 read?
A: 11 nM

Q: Which IC50 does the source give for `Cc1nnc(-c2c[nH]/c(=N\c3ccc(Oc4cccc(C(N)=O)n4)cc3)n(Cc3ccc(Cl)cc3)c2=O)o1` [Compound I-329] here?
A: 20 nM

Q: For `CCC(=O)Nc1c[nH]/c(=N\c2ccc(Oc3cccc(CCC(=O)OC)c3)cc2)n(Cc2ccc(Cl)cc2)c1=O` [Compound I-330], which IC50 is on record?
A: 366 nM

Q: Which IC50 does the source give for `CCC(=O)Nc1c[nH]/c(=N\c2ccc(Oc3cccc(CC(=O)OC)c3)cc2)n(Cc2ccc(Cl)cc2)c1=O` [Compound I-331] here?
A: 309 nM

Q: How did the IC50 turn out when `N#Cc1cccc(Oc2ccc(/N=c3\[nH]cc(N4CCCC4=O)c(=O)n3Cc3ccc(Cl)cc3)cc2)n1` [Compound I-332] was run?
A: 179 nM

Q: How did the IC50 turn out when `O=C1CCCN1c1c[nH]/c(=N\c2ccc(Oc3cccc(F)n3)cc2)n(Cc2ccc(Cl)cc2)c1=O` [Compound I-333] was run?
A: 149 nM

Q: `CSc1cccc(Oc2ccc(/N=c3\[nH]cc(N4CCCC4=O)c(=O)n3Cc3ccc(Cl)cc3)cc2)n1` [Compound I-334] was tested. Which IC50 did it give?
A: 838 nM

Q: How did the IC50 turn out when `NC(=O)c1cccc(Oc2ccc(/N=c3\[nH]cc(N4CCCC4=O)c(=O)n3Cc3ccc(Cl)cc3)cc2)n1` [Compound I-335] was run?
A: 227 nM

Q: With `O=C(O)c1cccc(Oc2ccc(/N=c3\[nH]cc(N4CCCC4=O)c(=O)n3Cc3ccc(Cl)cc3)cc2)n1` [Compound I-336] as the compound, how does the IC50 read?
A: 41 nM

Q: Which IC50 does the source give for `CCC(=O)Nc1c[nH]/c(=N\c2ccc(Oc3cccc(CCC(=O)O)c3)cc2)n(Cc2ccc(Cl)cc2)c1=O` [Compound I-337] here?
A: 76 nM

Q: For `COC(=O)[C@H](C)[C@H](C)n1c(=O)cc(Nc2ccc(Oc3ccc(F)nc3)c(C)n2)n(Cc2ccc(Cl)cc2)c1=O` [Compound I-338], which IC50 is on record?
A: 9 nM

Q: Which IC50 does the source give for `Cc1nc(Nc2cc(=O)n(C(C)C)c(=O)n2Cc2ccc(Cl)cc2)ccc1Oc1cccc(C#N)c1` [Compound I-340] here?
A: 8 nM

Q: Which IC50 does the source give for `Cc1nc(Nc2cc(=O)n(C(C)C)c(=O)n2Cc2ccc(Cl)cc2)ccc1Oc1cccc(C(=O)O)n1` [Compound I-341] here?
A: 10 nM

Q: With `COCCn1c(=O)cc(Nc2ccc(Oc3ccc(F)nc3)cc2)n(Cc2ccc(Cl)cc2)c1=O` [Compound I-342] as the compound, how does the IC50 read?
A: 10 nM

Q: `CC(=O)OCC(=O)NNC(=O)c1c[nH]/c(=N\c2ccc(Oc3ccon3)cc2)n(Cc2ccc(Cl)cc2)c1=O` [Compound I-343] was tested. Which IC50 did it give?
A: 84 nM

Q: Which IC50 does the source give for `C#CCNC(=O)c1c[nH]/c(=N\c2ccc(Oc3ccon3)cc2)n(Cc2ccc(Cl)cc2)c1=O` [Compound I-344] here?
A: 4 nM

Q: For `Cc1noc(-c2c[nH]/c(=N\c3ccc(Oc4ccon4)cc3)n(Cc3ccc(Cl)cc3)c2=O)n1` [Compound I-345], which IC50 is on record?
A: 38 nM

Q: How did the IC50 turn out when `CN(C)C(=O)c1c[nH]/c(=N\c2ccc(Oc3ccon3)cc2)n(Cc2ccc(Cl)cc2)c1=O` [Compound I-346] was run?
A: 346 nM

Q: Which IC50 does the source give for `CC(=O)NNC(=O)c1c[nH]/c(=N\c2ccc(Oc3ccon3)cc2)n(Cc2ccc(Cl)cc2)c1=O` [Compound I-347] here?
A: 152 nM

Q: For `CC(=O)OCc1nnc(-c2c[nH]/c(=N\c3ccc(Oc4ccon4)cc3)n(Cc3ccc(Cl)cc3)c2=O)o1` [Compound I-348], which IC50 is on record?
A: 76 nM

Q: For `Cc1nnc(-c2c[nH]/c(=N\c3ccc(Oc4ccon4)cc3)n(Cc3ccc(Cl)cc3)c2=O)o1` [Compound I-349], which IC50 is on record?
A: 73 nM

Q: For `COc1cn(Cc2ccc(Cl)cc2)c(Nc2ccc(Oc3cccc(C#N)n3)cc2)nc1=O` [Compound I-350], which IC50 is on record?
A: 405 nM

Q: For `COc1cn(Cc2ccc(Cl)cc2)c(Nc2ccc(Oc3cccc(F)n3)cc2)nc1=O` [Compound I-351, 1-(4-chlorobenzyl)-2-[4-(6-fluoro-2-pyridyloxy)phenylamino]-5-methoxypyrimidin-4(1H)-one], which IC50 is on record?
A: 98 nM

Q: For `CC(c1ccc(F)cc1)n1cc(C(=O)NC2CCOCC2)c(=O)nc1Nc1ccc(Oc2cccc(F)n2)cc1` (stereo not shown) [Compound I-352], which IC50 is on record?
A: 369 nM

Q: Which IC50 does the source give for `CC(C)c1c[nH]/c(=N\c2ccc(Oc3cccc(C(=O)O)n3)cc2)n(Cc2ccc(Cl)cc2)c1=O` [Compound I-353] here?
A: 6 nM

Q: How did the IC50 turn out when `CCC(=O)Nc1c[nH]/c(=N\c2ccc(Oc3cccc(CC(=O)O)c3)cc2)n(Cc2ccc(Cl)cc2)c1=O` [Compound I-355] was run?
A: 53 nM

Q: How did the IC50 turn out when `O=C1CCCN1C1=CN[C@@H](Nc2ccc(Oc3ccon3)cc2)N(Cc2ccc(Cl)cc2)C1=O` [Compound I-356] was run?
A: 212 nM

Q: For `Cc1ccccc1Cn1cc(C(=O)NC2CCOCC2)c(=O)nc1Nc1ccc(Oc2cccc(F)n2)cc1` [Compound I-357], which IC50 is on record?
A: 781 nM

Q: Which IC50 does the source give for `CC(c1ccc(Cl)cc1)n1cc(C(=O)NC2CCOCC2)c(=O)nc1Nc1ccc(Oc2cccc(F)n2)cc1` (stereo not shown) [Compound I-358] here?
A: 23 nM

Q: `O=C(NC1CCOCC1)c1cn(Cc2ccc(Cl)cc2)c(Nc2ccc3nc(C(F)F)sc3c2)nc1=O` [Compound I-359] was tested. Which IC50 did it give?
A: 57 nM

Q: With `COC(=O)CCCn1c(=O)cc(Nc2ccc(Oc3ccc(F)cn3)c(C)n2)n(Cc2ccc(Cl)cc2)c1=O` [Compound I-360] as the compound, how does the IC50 read?
A: 6 nM

Q: `Cc1nc(Nc2cc(=O)n(CCCC(=O)O)c(=O)n2Cc2ccc(Cl)cc2)ccc1Oc1ccc(F)cn1` [Compound I-361] was tested. Which IC50 did it give?
A: 32 nM

Q: For `COC(=O)[C@@H](C)Cn1c(=O)cc(Nc2ccc(Oc3ccc(F)cn3)c(C)n2)n(Cc2ccc(Cl)cc2)c1=O` [Compound I-362], which IC50 is on record?
A: 7 nM

Q: `Cc1nc(Nc2cc(=O)n(C[C@H](C)C(=O)O)c(=O)n2Cc2ccc(Cl)cc2)ccc1Oc1ccc(F)cn1` [Compound I-363] was tested. Which IC50 did it give?
A: 8 nM

Q: With `COC(=O)C(C)(C)Cn1c(=O)cc(Nc2ccc(Oc3ccc(F)cn3)c(C)n2)n(Cc2ccc(Cl)cc2)c1=O` [Compound I-364] as the compound, how does the IC50 read?
A: 4 nM

Q: With `Cc1nc(Nc2cc(=O)n(CC(C)(C)C(=O)O)c(=O)n2Cc2ccc(Cl)cc2)ccc1Oc1ccc(F)cn1` [Compound I-365] as the compound, how does the IC50 read?
A: 5 nM

Q: For `COC(=O)c1ccc(Oc2ccc(/N=c3\[nH]cc(C(C)C)c(=O)n3Cc3ccc(Cl)cc3)cc2)nc1` [Compound I-366], which IC50 is on record?
A: 91 nM

Q: How did the IC50 turn out when `COC(=O)c1cncc(Oc2ccc(/N=c3\[nH]cc(C(C)C)c(=O)n3Cc3ccc(Cl)cc3)cc2)c1` [Compound I-367] was run?
A: 471 nM

Q: `O=C(NCc1ccco1)c1cn(Cc2ccc(Cl)cc2)c(Nc2ccc(Oc3cccc(F)n3)cc2)nc1=O` [Compound I-369] was tested. Which IC50 did it give?
A: 120 nM

Q: With `CC(=O)NCCNC(=O)c1cn(Cc2ccc(Cl)cc2)c(Nc2ccc(Oc3cccc(F)n3)cc2)nc1=O` [Compound I-370] as the compound, how does the IC50 read?
A: 384 nM

Q: Which IC50 does the source give for `Cc1cc(NC(=O)c2cn(Cc3ccc(Cl)cc3)c(Nc3ccc(Oc4cccc(F)n4)cc3)nc2=O)no1` [Compound I-371] here?
A: 80 nM

Q: How did the IC50 turn out when `O=C(Nc1ccon1)c1cn(Cc2ccc(Cl)cc2)c(Nc2ccc(Oc3cccc(F)n3)cc2)nc1=O` [Compound I-372] was run?
A: 51 nM

Q: How did the IC50 turn out when `COCCCNC(=O)c1cn(Cc2ccc(Cl)cc2)c(Nc2ccc(Oc3cccc(F)n3)cc2)nc1=O` [Compound I-373] was run?
A: 136 nM

Q: How did the IC50 turn out when `CC(C)CNC(=O)c1cn(Cc2ccc(Cl)cc2)c(Nc2ccc(Oc3cccc(F)n3)cc2)nc1=O` [Compound I-374] was run?
A: 46 nM

Q: `NC(=O)[C@H](CO)NC(=O)c1cn(Cc2ccc(Cl)cc2)c(Nc2ccc(Oc3cccc(F)n3)cc2)nc1=O` [Compound I-375] was tested. Which IC50 did it give?
A: 4 nM

Q: Which IC50 does the source give for `O=C(NC1CCCC1)c1cn(Cc2ccc(Cl)cc2)c(Nc2ccc(Oc3cccc(F)n3)cc2)nc1=O` [Compound I-376] here?
A: 40 nM

Q: Which IC50 does the source give for `Cc1noc(C)c1NC(=O)c1cn(Cc2ccc(Cl)cc2)c(Nc2ccc(Oc3cccc(F)n3)cc2)nc1=O` [Compound I-377] here?
A: 37 nM
